Measured values from patent publication US4925835A, “Aziridinyl putrescine containing compositions and their uses in treating prostate cancer” (priority 1987, dated 1990).
Like-named read-outs stand apart in the source and are kept apart here.

Legend:
[1] = system: PC-3 human prostatic carcinoma cell line; test: cells; format: cell-based
Description: FIG. 3. Effect of AZP on the growth of PC-3 cells with or without DFMO pretreatment. PC-3 cells (3×10^4) were plated in 60-mm^2 Petri dish in RPMI 1640-10% FCS and allowed to attach overnight. The following day the medium was aspirated and replaced with RPMI 1640, 10% FCS, 100 μM aminoguanidine with or without 1 mm DFMO. Forty-eight h later the medium was aspirated, the dishes were rinsed once with HBSS, and the cells were incubated with RPMI 1640-10% FCS-100 μM aminoguanidine with or without 25 μM AZP for 1 h. Following the 1-h incubation the medium was aspirated, the plates were rinsed twice with HBSS, and the incubation was continued with fresh RPMI 1640-10% FCS-100 μM aminoguanidine. At the indicated times following initial plating the cells were lifted from the plate by trypsinization and were examined for their ability to exclude trypan blue. Total cell counts were obtained with the aid of a hemocytometer, and the completeness of the removal of the cells from the dish was verified by the examination of each dish with the inverted microscope. , control; Δ, DFMO; .circle., AZP; .quadrature., DFMO+AZP. Points, means; bars, SE.
FIG. 4. Dose-effect relationship of AZP on the growth on PC-3 prostatic cancer cells. PC-3 cells (3×10^4) were plated in RPMI 1640-10% FCS in 60-mm^2 Petri dishes and allowed to attach overnight. The following day the medium was aspirated and replaced with RPMI 1640-10% FCS-100 μM aminoguanidine with or without 1 mm DFMO. Forty-eight h later the medium was aspirated, and the cells were rinsed once with HBSS and replaced with RPMI 1640-10% FCS-100 μM aminoguanidine with or without the indicated μM concentrations of AZP. After a 1-h incubation the medium was aspirated, the cells were rinsed twice with HBSS, and the incubation was continued with fresh RPMI 1640-10% FCS-100 μM aminoguanidine. Eight days following plating the cells were lifted from the plates by trypsinization and were counted with the aid of a hemocytometer and expressed as a percentage of control (100% without DFMO, 212±31×10^4; 100% with DFMO pretreatment, 219±25× 10^4 cells, respectively). , DFMO pretreated; .circle., without DFMO.
Assays of cell growth were performed by plating 3×10^4 PC-3 cells in RPMI 1640 medium with 10% FCS and allowing them to attach overnight. The following morning the medium was replaced with incubation medium consisting of RPMI 1640, 10% FCS, 100 μM aminoguanidine, 100 units/ml of penicillin, 100 μg/ml of streptomycin, and 2 mM glutamine, with or without 1 mM difluoromethylornithine. Two days later the medium was aspirated and replaced with or without 1-(4-aminobutyl) aziridine at the designated concentration usually for 1 h or for the designated length of time. Following the 1-h incubation, the medium of all groups was aspirated and the dishes were rinsed with HBSS and replaced with fresh incubation medium. Either daily or 8 days following plating, the Petri dishes were rinsed with HBSS and the cells were lifted from the plate by trypsinization. The dishes were examined for completeness of cell removal by examination with an inverted microscope. The cells were counted with a Zeiss microscope using a hemocytometer. Tumor cell population doubling time was determined by ploting the natural logarithm (ln) of the number of cells versus the days following plating. The slope of this line was determined using the Memorial Sloan-Kettering Cancer Center Clin computer system statistical analysis package. Doubling time (DT) was determined as ln 2/slope=DT. Statistical differences in cell number between groups were determined by Student's t statistic with the aid of the Memorial Sloan-Kettering Cancer Center Clin computer using the statistics program.
^a Thirty thousand PC3 cells were plated in 60mm^2 Petri dishes i
RPMI 164010% FCS. The next day the medium was aspirated and replaced with
RPMI 164010% FCS medium with 100 μM aminoguanidine with or without 1 m
DFMO. Fortyeight h later the medium was aspirated. […]

[2] = system: human prostate cancer cell line PC-3; test: cells; format: cell-based
Description: Aziridinyl putrescine 1-(4-aminobutyl) aziridine was synthesized using the method as described by Piper, et al., J. Med. Chem. 12: 236-243 (1968). Cells of the human prostate cancer cell line PC-3 were used.
10^3 PC-3 human cells were plated in RPMI 1640 with 10% FCS/3 ml in 60 mm^2 petri dishes. The cell plates were incubated either with, or without difluoromethylornithine for 48 hours. This was followed by aspiration, and replacement with a medium containing either no additives, 50 uM 1-(4-aminobutyl) aziridine, 1 mM putrescine, or both 50 uM 1-(4-aminobutyl) aziridine and 1 mM putrescine. The media were aspirated after 1 hour, and replaced with a drug free medium. Incubation continued for 5 days.
*Represents mean number of colonies ± one standard deviation of
triplicate assay. Number in parenthesis is percent of control.

PC-3 cells = test: Polyamine assays: intracellular polyamine levels by HPLC; format: cell-based, human; conditions: PC-3, ±1 mM DFMO 48 h, then ±25 μM AZP 1 h
Description: One h later the medium was aspirated and the cells were rinsed with cold HBSS. Three plates were treated with dilute trypsin to release the cells from the plate and provide a single cell suspension. The viability of the cells and the number of cells per plate were determined by trypan blue exclusion and counting with the aid of a hemocytometer. […] The other three plates were extracted with 0.4N perchloric acid and the polyamines were measured by fluorescence following postcolumn derivatization with o-phthalaldehyde following separation by the reverse phase ion-pair high performance liquid chromatography procedure of Wagner et al., J. Chomatogr., 227: 349-368, 1982.
In Table 2 are listed the values for the triplicate assays of the concentrations of polyamine observed in nontreated cells, cells treated with 1-(4-aminobutyl) aziridine for 1 h, cells pretreated for 48 h with 1 mM difluoromethylornithine and then incubated in drug free medium for 1 h, or cells pretreated for 48 h with difluoromethylornithine, rinsed free of difluoromethylornithine, and then incubated with 25 μM 1-(4-aminobutyl)aziridine for 1 h. All groups had cell viabilities greater than 95% and cell numbers were 4.9±0.6 (SE), 4.9±0.7, 4.8±0.4, and 4.6±0.4×10^6 cells for the control, 1-(4-aminobutyl) aziridine, difluoromethylornithine, and difluoromethylornithine+1-(4-aminobutyl) aziridine groups, respectively. The apparent amount of 1-(4-aminobutyl) aziridine in the difluoromethylornithine-treated cells was 3.7 times that of the 1-(4-aminobutyl) aziridine-only-treated cells. No N^8 -acetylspermidine, acetylputrescine, or cadaverine was detected in any group. A peak was detected at a wavelength of 254 nm in the difluoromethylornithine treatment groups that corresponds to the retention time of decarboxylated S-adenosylmethionine.
^a PC-3 cells were incubated with or without 1 mM DFMO for 48 h. Cell
were then rinsed free of DFMO and incubated for 1 h with 25 μM AZP. Th
cells were washed free of AZP by three rinses of HBSS. With one set of
triplicate plates, the cells were resuspended and counted by hemocytomete
and viability was determined by trypan dye exclusion (viability > 95%).
Another set triplicate plates was extracted with icecold perchloric acid
and filtered and the polyamine concentrations were determined by HPLC.
^b Mean ± SE for a triplicate assay. Histamine is included as a […]

normal rat prostate = test: In vivo antiprostatic activity, prostate wet weight; conditions: Copenhagen rats, 14 days; AZP 2 mg/kg/day by intraperitoneal infusion mini-pump, DFMO similar amount orally
Description: 1-(4-aminobutyl) aziridine, difluoromethylornithine, and a combination of 1-(4-aminobutyl) aziridine and difluoromethylornithine were tested in vivo for antiprostatic activity using Copenhagen rats. The normal rat prostate is often used as a model or control for drugs which are suspected of having antiprostatic cancer activity. Sloan, et al., Cancer Chemother. Rep. 59: 185-194 (1975). 1-(4-aminobutyl) aziridine, difluoromethylornithine, and a combination of 1-(4-aminobutyl) aziridine and difluoromethylornithine were administered to twenty-eight (28) Copenhagen rats for 14 days. 1-(4-aminobutyl) aziridine was administered by an infusion mini-pump implanted intraperitoneally.
Difluoromethylornithine was administered orally. The 1-(4-aminobutyl) aziridine was delivered at a rate of 2 mg/kg/day. A similar amount of difluoromethylornithine was administered orally on a daily basis. Before loading the infusion pump, the pH of 1-(4-aminobutyl) aziridine was adjusted to 7.5 with hydrochloric acid. The pump rate was 0.5 u./hr.
The prostates of the twenty-eight (28) subjects were removed, freed of fat and weighed to the nearest milligram.

[3] = system: uptake of [14C]putrescine into PC-3 cells; format: cell-based, human
Description: FIG. 1. Lineweaver-Burk plot of the uptake of [^14 C]putrescine by DFMO-pretreated cells. The ordinate is expressed as 1/pmol/15 min. The abscissa is expressed as 1 μM concentrations containing from 16 to 1.0 μM [^14 C]putrescine.
Fifty thousand PC-3 cells were plated in 12-well plates and 18 h later the incubation medium was removed and replaced with 1 ml or RPMI 1640 medium containing 25 mM 4-(2-hydroxyethyl)-1-piperazineethansulfonic acid buffer, 100 μM aminoguanidine, and 10% FCS. Forty-eight h later the medium was replaced with medium which contained [^14 C]putrescine in concentrations ranging from 16 to 1.0 μM with or without 5 1M 1-(4-aminobutyl) aziridine. Following incubation at 37° C. for 15 min the [^14 C]putrescine-containing medium was aspirated, and the cells were rinsed rapidly 4 times with HBSS. Following the last rinse, 1.0 ml of a solution of 0.1N NaOH was added and after a 2-h incubation at room temperature a 0.2-ml aliquot was added to 1 ml of 2% glacial acidic acid and 10 ml of Scintiverse 1 scintillation cocktail and the radioactive disintegrations were determined with a Packard Tri-Carb 300 scintillation spectrophotometer. Counting efficiency for ^14 C was 80%. Kinetic analysis of uptake was performed by graphic methods as described by Dixon and Webb, Enzymes, p. 322, New York Academic Press (1959).
In FIG. 1 a Lineweaver-Burk plot of the uptake of [^14 C]-putrescine into the PC-3 cells is presented and was used to determine the Km (intercept x axis) and Vmax (intercept y axis) for putrescine.

[4] = PC-3, 48 h with or without DFMO, then 1 h with 50 uM AZP and/or 1 mM putrescine, 5 days drug free

| SMILES | Cells per dish on day 8 following plating ([1]; PC-3, 3×10^4 plated, ±1 mM DFMO 48 h, ±25 μM AZP 1 h, mean±SD of triplicates) | Doubling time ([1]; PC-3, 25 μM AZP 1 h or 1 mM DFMO 48 h, mean±SE) | Inhibition of proliferation of human prostate cancer cells in culture ([2]; AZP at 50 uM, from Table 1) | Clonogenic survivors (mean number of colonies ± one standard deviation) [2, 4] | Clonogenic survivors, percent of control [2, 4] | Cell numbers at end of treatment (PC-3 cells; SE) | Polyamine levels: Hist (histamine, nonpolyamine control) (PC-3 cells; mean ± SE) | Polyamine levels: NaSpm (N-acetylspermine) (PC-3 cells; mean ± SE) | Polyamine levels: PUT (putrescine) (PC-3 cells; mean ± SE) | Polyamine levels: Spd (spermidine) (PC-3 cells; mean ± SE) | Polyamine levels: Spm (spermine) (PC-3 cells; mean ± SE) | Dorsal Lateral Prostate, milligram wet weight (SEM) (normal rat prostate) | Ventral Prostate, milligram wet weight (SEM) (normal rat prostate) | Cell no. [1] | Growth-inhibitory activity toward PC-3 cells (in words) [1] | Cell no. as a percentage of control ([1]; pc-3 cells, 11520 min) | Km [3] | Vmax of putrescine uptake [3] | Vmax of putrescine uptake ([3]; PC-3 cells, without difluoromethylornithine pretreatment) |
| --- | --- | --- | --- | --- | --- | --- | --- | --- | --- | --- | --- | --- | --- | --- | --- | --- | --- | --- | --- |
| NCCCC(N)(C(=O)O)C(F)F (stereo not shown) [DFMO, difluoromethylornithine, reference compound] | 340±54 ×10^4 cells per dish | 1.14 ± 0.05 days | little effect | 549 ± 57 colonies | 94% | 4.8±0.4 ×10^6 cells | 98 ± 26 pmol/10^6 | 130 ± 10 pmol/10^6 | 192 ± 34 pmol/10^6 | 171 ± 66 pmol/10^6 | 3046 ± 554 pmol/10^6 | 445 ± 32 milligram | 377 ± 16 milligram |  |  |  |  |  |  |
| NCCCCN [PUT, 1,4-butanediamine, reference compound] |  |  |  |  |  |  |  |  |  |  |  |  |  | 438 ± 16 × 10^-4 | no growth-inhibitory activity | 106% | 2.5 µM | 190 pmol/15 min/10^5 cells | 40 pmol/15 min/10^5 cells |
